Values quoted from earlier work in patent US20040204492A1, “Topical composition and method for treating seborrheic dermatitis” (Healthpoint, Ltd., priority 2003, published 2004).

Test system: sulfonamide sensitive gram-positive and gram-negative microorganisms
Details: microorganisms commonly isolated from secondary cutaneous infections

In the case of `CC(=O)NS(=O)(=O)c1ccc(N)cc1.O.[Na]` [Sulfacetamide sodium, Acetamide N-[(4-aminophenyl)sulfonyl]-, monosodium salt, monohydrate], the bacteriostatic effect is given as “exerts a bacteriostatic effect”.
